Values after ≈ are worked out from the molar mass of the structure shown.
What was measured:
[1] = tested on: Mycobacterium tuberculosis; assay: Antimycobacterial activity against Mycobacterium tuberculosis H37Rv CNCTC My 331/88 after 14 days by micromethod; format: functional; settings: H37Rv CNCTC My 331/88, 336 h
[2] = tested on: Mycobacterium tuberculosis; assay: Antimycobacterial activity against Mycobacterium tuberculosis H37Rv CNCTC My 331/88 after 21 days by micromethod; format: functional; settings: H37Rv CNCTC My 331/88, 504 h
Mycobacterium avium [3] = assay: Antimycobacterial activity against Mycobacterium avium CNCTC My 330/80 after 14 days by micromethod; format: functional; settings: CNCTC My 330/80, 336 h
Mycobacterium avium [4] = assay: Antimycobacterial activity against Mycobacterium avium CNCTC My 330/80 after 21 days by micromethod; format: functional; settings: CNCTC My 330/80, 504 h
Mycobacterium kansasii [5] = assay: Antimycobacterial activity against Mycobacterium kansasii CNCTC My 235/80 after 7 days by micromethod; format: functional; settings: CNCTC My 235/80, 168 h
Mycobacterium kansasii [6] = assay: Antimycobacterial activity against Mycobacterium kansasii CNCTC My 235/80 after 14 days by micromethod; format: functional; settings: CNCTC My 235/80, 336 h
Mycobacterium kansasii [7] = assay: Antimycobacterial activity against Mycobacterium kansasii CNCTC My 235/80 after 21 days by micromethod; format: functional; settings: CNCTC My 235/80, 504 h
Mycobacterium kansasii [8] = assay: Antimycobacterial activity against Mycobacterium kansasii isolate 6509/96 after 7 days by micromethod; format: functional; settings: isolate 6509/96, 168 h
Mycobacterium kansasii [9] = assay: Antimycobacterial activity against Mycobacterium kansasii isolate 6509/96 after 14 days by micromethod; format: functional; settings: isolate 6509/96, 336 h
Mycobacterium kansasii [10] = assay: Antimycobacterial activity against Mycobacterium kansasii isolate 6509/96 after 21 days by micromethod; format: functional; settings: isolate 6509/96, 504 h
CHO-K1 = assay: Cytotoxicity against CHOK1 cells after 24 hrs by MTT assay; format: cell-based; settings: Cricetulus griseus, CHO-K1, 24 h
Staphylococcus aureus [11] = assay: Antibacterial activity against Staphylococcus aureus ATCC 6538 after 24 hrs by broth microdilution method; format: functional; settings: ATCC 6538, 24 h
Staphylococcus aureus [12] = assay: Antibacterial activity against Staphylococcus aureus ATCC 6538 after 48 hrs by broth microdilution method; format: functional; settings: ATCC 6538, 48 h
Staphylococcus aureus [13] = assay: Antibacterial activity against methicillin-resistant Staphylococcus aureus HK5996/08 after 24 hrs by broth microdilution method; format: functional; settings: HK5996/08, 24 h
Staphylococcus aureus [14] = assay: Antibacterial activity against methicillin-resistant Staphylococcus aureus HK5996/08 after 48 hrs by broth microdilution method; format: functional; settings: HK5996/08, 48 h
[15] = tested on: Staphylococcus epidermidis; assay: Antibacterial activity against Staphylococcus epidermidis HK6966/08 after 24 hrs by broth microdilution method; format: functional; settings: HK6966/08, 24 h
[16] = tested on: Staphylococcus epidermidis; assay: Antibacterial activity against Staphylococcus epidermidis HK6966/08 after 48 hrs by broth microdilution method; format: functional; settings: HK6966/08, 48 h
Enterococcus sp. [17] = assay: Antibacterial activity against Enterococcus sp. HK14365/08 after 24 hrs by broth microdilution method; format: functional; settings: HK14365/08, 24 h
Enterococcus sp. [18] = assay: Antibacterial activity against Enterococcus sp. HK14365/08 after 48 hrs by broth microdilution method; format: functional; settings: HK14365/08, 48 h
Escherichia coli [19] = assay: Antibacterial activity against Escherichia coli ATCC 8739 after 24 hrs by broth microdilution method; format: functional; settings: ATCC 8739, 24 h
Escherichia coli [20] = assay: Antibacterial activity against Escherichia coli ATCC 8739 after 48 hrs by broth microdilution method; format: functional; settings: ATCC 8739, 48 h
Klebsiella pneumoniae [21] = assay: Antibacterial activity against Klebsiella pneumoniae HK11750/08 after 24 hrs by broth microdilution method; format: functional; settings: HK11750/08, 24 h
Klebsiella pneumoniae [22] = assay: Antibacterial activity against Klebsiella pneumoniae HK11750/08 after 48 hrs by broth microdilution method; format: functional; settings: HK11750/08, 48 h
Klebsiella pneumoniae [23] = assay: Antibacterial activity against extended spectrum beta-lactamase producing Klebsiella pneumoniae HK14368/08 after 24 hrs by broth microdilution method; format: functional; settings: HK14368/08, 24 h
Klebsiella pneumoniae [24] = assay: Antibacterial activity against extended spectrum beta-lactamase producing Klebsiella pneumoniae HK14368/08 after 48 hrs by broth microdilution method; format: functional; settings: HK14368/08, 48 h
Pseudomonas aeruginosa [25] = assay: Antibacterial activity against Pseudomonas aeruginosa ATCC 9027 after 24 hrs by broth microdilution method; format: functional; settings: ATCC 9027, 24 h
Pseudomonas aeruginosa [26] = assay: Antibacterial activity against Pseudomonas aeruginosa ATCC 9027 after 48 hrs by broth microdilution method; format: functional; settings: ATCC 9027, 48 h
Candida albicans [27] = assay: Antifungal activity against Candida albicans ATCC 44859 after 24 hrs by broth microdilution method; format: functional; settings: ATCC 44859, 24 h
Candida albicans [28] = assay: Antifungal activity against Candida albicans ATCC 44859 after 48 hrs by broth microdilution method; format: functional; settings: ATCC 44859, 48 h
Candida tropicalis [29] = assay: Antifungal activity against Candida tropicalis 156 after 24 hrs by broth microdilution method; format: functional; settings: Candida tropicalis, 156, 24 h
Candida tropicalis [30] = assay: Antifungal activity against Candida tropicalis 156 after 48 hrs by broth microdilution method; format: functional; settings: Candida tropicalis, 156, 48 h
Pichia kudriavzevii [31] = assay: Antifungal activity against Candida krusei E28 after 24 hrs by broth microdilution method; format: functional; settings: E28, 24 h
Pichia kudriavzevii [32] = assay: Antifungal activity against Candida krusei E28 after 48 hrs by broth microdilution method; format: functional; settings: E28, 48 h
Nakaseomyces glabratus [33] = assay: Antifungal activity against Candida glabrata 20/I after 24 hrs by broth microdilution method; format: functional
Nakaseomyces glabratus [34] = assay: Antifungal activity against Candida glabrata 20/I after 48 hrs by broth microdilution method; format: functional
Trichosporon asahii [35] = assay: Antifungal activity against Trichosporon asahii 1188 after 24 hrs by broth microdilution method; format: functional; settings: Trichosporon asahii, 1188, 24 h
Trichosporon asahii [36] = assay: Antifungal activity against Trichosporon asahii 1188 after 48 hrs by broth microdilution method; format: functional; settings: Trichosporon asahii, 1188, 48 h
Aspergillus fumigatus [37] = assay: Antifungal activity against Aspergillus fumigatus 231 after 24 hrs by broth microdilution method; format: functional; settings: Aspergillus fumigatus, 231, 24 h
Aspergillus fumigatus [38] = assay: Antifungal activity against Aspergillus fumigatus 231 after 48 hrs by broth microdilution method; format: functional; settings: Aspergillus fumigatus, 231, 48 h
Lichtheimia corymbifera [39] = assay: Antifungal activity against Absidia corymbifera 272 after 24 hrs by broth microdilution method; format: functional; settings: Lichtheimia corymbifera, 272, 24 h
Lichtheimia corymbifera [40] = assay: Antifungal activity against Absidia corymbifera 272 after 48 hrs by broth microdilution method; format: functional; settings: Lichtheimia corymbifera, 272, 48 h
[41] = tested on: Trichophyton mentagrophytes; assay: Antifungal activity against Trichophyton mentagrophytes 445 after 72 hrs by broth microdilution method; format: functional; settings: Trichophyton mentagrophytes, 445, 72 h
[42] = tested on: Trichophyton mentagrophytes; assay: Antifungal activity against Trichophyton mentagrophytes 445 after 120 hrs by broth microdilution method; format: functional; settings: Trichophyton mentagrophytes, 445, 120 h

`CCCCCCCCCCCCn1nnc(-c2cc([N+](=O)[O-])cc([N+](=O)[O-])c2)n1` was tested, and the MIC99 [1] was 1 µM (≈ 0.404 µg/mL), the MIC99 [2] was 2 µM (≈ 0.809 µg/mL) and the MIC99 (Mycobacterium avium [3]) was 8 µM (≈ 3.24 µg/mL). It also gave an MIC99 (Mycobacterium avium [4]) of 16 µM (≈ 6.47 µg/mL), an MIC99 (Mycobacterium kansasii [5]) of 4 µM (≈ 1.62 µg/mL) and an MIC99 (Mycobacterium kansasii [6]) of 8 µM (≈ 3.24 µg/mL). For the same molecule, the MIC99 (Mycobacterium kansasii [7]) was 8 µM (≈ 3.24 µg/mL), the MIC99 (Mycobacterium kansasii [8]) was 2 µM (≈ 0.809 µg/mL) and the MIC99 (Mycobacterium kansasii [9]) was 4 µM (≈ 1.62 µg/mL). For the same molecule, the MIC99 (Mycobacterium kansasii [10]) was 4 µM (≈ 1.62 µg/mL), the IC50 (CHO-K1) was over 200 µM and the MIC (Staphylococcus aureus [11]) was over 250 µM. The MIC (Staphylococcus aureus [12]) was over 250 µM, the MIC (Staphylococcus aureus [13]) was over 250 µM and the MIC (Staphylococcus aureus [14]) was over 250 µM. It also gave an MIC [15] of over 250 µM, an MIC [16] of over 250 µM and an MIC (Enterococcus sp. [17]) of over 250 µM. For the same molecule, the MIC (Enterococcus sp. [18]) was over 250 µM, the MIC (Escherichia coli [19]) was over 250 µM and the MIC (Escherichia coli [20]) was over 250 µM. It also gave an MIC (Klebsiella pneumoniae [21]) of over 250 µM, an MIC (Klebsiella pneumoniae [22]) of over 250 µM and an MIC (Klebsiella pneumoniae [23]) of over 250 µM. The MIC (Klebsiella pneumoniae [24]) was over 250 µM, the MIC (Pseudomonas aeruginosa [25]) was over 250 µM and the MIC (Pseudomonas aeruginosa [26]) was over 250 µM. The MIC (Candida albicans [27]) was over 250 µM, the MIC (Candida albicans [28]) was over 250 µM and the MIC (Candida tropicalis [29]) was over 250 µM. For the same molecule, the MIC (Candida tropicalis [30]) was over 250 µM, the MIC (Pichia kudriavzevii [31]) was over 250 µM and the MIC (Pichia kudriavzevii [32]) was over 250 µM. It also gave an MIC (Nakaseomyces glabratus [33]) of over 250 µM, an MIC (Nakaseomyces glabratus [34]) of over 250 µM and an MIC (Trichosporon asahii [35]) of over 250 µM. For the same molecule, the MIC (Trichosporon asahii [36]) was over 250 µM, the MIC (Aspergillus fumigatus [37]) was over 250 µM and the MIC (Aspergillus fumigatus [38]) was over 250 µM. For the same molecule, the MIC (Lichtheimia corymbifera [39]) was over 250 µM, the MIC (Lichtheimia corymbifera [40]) was over 250 µM and the MIC [41] was over 250 µM. For the same molecule, the MIC [42] was over 250 µM.

Molecule `O=[N+]([O-])c1cc(-c2nnn(CSc3nnnn3-c3ccc(Cl)cc3)n2)cc([N+](=O)[O-])c1` has an MIC99 [1] of 0.03 µM (≈ 0.0138 µg/mL), an MIC99 [2] of 0.03 µM (≈ 0.0138 µg/mL) and an MIC99 (Mycobacterium avium [3]) of 2 µM (≈ 0.922 µg/mL). It also gave an MIC99 (Mycobacterium avium [4]) of 4 µM (≈ 1.84 µg/mL), an MIC99 (Mycobacterium kansasii [5]) of 0.5 µM (≈ 0.23 µg/mL) and an MIC99 (Mycobacterium kansasii [6]) of 1 µM (≈ 0.461 µg/mL). It also gave an MIC99 (Mycobacterium kansasii [7]) of 2 µM (≈ 0.922 µg/mL), an MIC99 (Mycobacterium kansasii [8]) of 0.25 µM (≈ 0.115 µg/mL) and an MIC99 (Mycobacterium kansasii [9]) of 0.5 µM (≈ 0.23 µg/mL). For the same molecule, the MIC99 (Mycobacterium kansasii [10]) was 0.5 µM (≈ 0.23 µg/mL), the IC50 (CHO-K1) was 14 µM and the MIC (Staphylococcus aureus [11]) was over 125 µM. For the same molecule, the MIC (Staphylococcus aureus [12]) was over 125 µM, the MIC (Staphylococcus aureus [13]) was over 125 µM and the MIC (Staphylococcus aureus [14]) was over 125 µM. It also gave an MIC [15] of 125 µM (≈ 57.6 µg/mL), an MIC [16] of over 125 µM and an MIC (Enterococcus sp. [17]) of 125 µM (≈ 57.6 µg/mL). For the same molecule, the MIC (Enterococcus sp. [18]) was over 125 µM, the MIC (Escherichia coli [19]) was over 125 µM and the MIC (Escherichia coli [20]) was over 125 µM. It also gave an MIC (Klebsiella pneumoniae [21]) of over 125 µM, an MIC (Klebsiella pneumoniae [22]) of over 125 µM and an MIC (Klebsiella pneumoniae [23]) of over 125 µM. For the same molecule, the MIC (Klebsiella pneumoniae [24]) was over 125 µM, the MIC (Pseudomonas aeruginosa [25]) was over 125 µM and the MIC (Pseudomonas aeruginosa [26]) was over 125 µM. For the same molecule, the MIC (Candida albicans [27]) was over 125 µM, the MIC (Candida albicans [28]) was over 125 µM and the MIC (Candida tropicalis [29]) was over 125 µM. The MIC (Candida tropicalis [30]) was over 125 µM, the MIC (Pichia kudriavzevii [31]) was over 125 µM and the MIC (Pichia kudriavzevii [32]) was over 125 µM. It also gave an MIC (Nakaseomyces glabratus [33]) of over 125 µM, an MIC (Nakaseomyces glabratus [34]) of over 125 µM and an MIC (Trichosporon asahii [35]) of over 125 µM. The MIC (Trichosporon asahii [36]) was over 125 µM, the MIC (Aspergillus fumigatus [37]) was over 125 µM and the MIC (Aspergillus fumigatus [38]) was over 125 µM. The MIC (Lichtheimia corymbifera [39]) was over 125 µM, the MIC (Lichtheimia corymbifera [40]) was over 125 µM and the MIC [41] was over 125 µM. For the same molecule, the MIC [42] was over 125 µM.

From ChEMBL document CHEMBL4011590, “Structure-activity relationship studies on 3,5-dinitrophenyl tetrazoles as antitubercular agents” (Eur J Med Chem, 2017)
